Laboratory results reported in patent publication US11944608B2, “Targeting RNA viruses using inhibitors of METTL3” (priority 2020, dated 2024).
Entries after “also recorded” stand apart in the source; their conditions may differ. Where two headings read alike, the source gives them in different places.

What was measured:
[1] = tested on: SARS-CoV-2; test: microbe, parasite or virus in culture; type: cell-based
[2] = tested on: MRCS cells; test: MRCS cell viability (ATP, Celltiterglo2.0); type: cell-based, human
Protocol: To determine viability, cells were seeded to opaque white 96-well plates. The next day, cells were drug- or vehicle-treated and incubated as in infection experiments (for example, treated-MRC-5 cells were placed for 48 h at 33° C.). ATP levels were then assayed using Celltiterglo2.0 (Promega G9242) according to the manufacturer's instructions. Luciferase signal was read on a Perkin Elmer Envision 2103 multilabel reader, and 24-h 1 μM staurosporine treatment used as a positive control for assay sensitivity.

[3] = tested on: A549+ACE2 cells; details: 48 h, FIG. 11B
[4] = tested on: SARS-CoV-2; test: SARS-CoV-2 infectious virus titers from A549+ACE2 cells by plaque assay; type: cell-based; details: MOI=0.1, 30 μM
Protocol: FIG. 11. Inhibition of METTL3 activity suppresses β-coronavirus replication in A549+ACE2 cells. […] The percentage of cells infected was established by green fluorescence and normalized to infection of nontreated cells. (B) The viability of A549+ACE2 cells in the presence of concentrations of each compound used in the infection assays shown in A was assessed using a commercial ATP quantitation assay. Cells were maintained at 37° C. in culture medium containing diluted compound for 48 h prior to lysis. Each experiment was conducted three times with internal duplicates, normalized to DMSO-treated cells processed in parallel and plotted as the mean±SEM. (C) Representative montages showing wells from the infections quantified in A that were treated with 30 μM M3c or M3i2 and infected with icSARS-CoV-2-mNG. (D) Infectious virus titers from A549+ACE2 cells infected with icSARS-CoV-2-mNG at MOI=0.1 and treated with 30 μM either M3c or M3i2 was determined by plaque assay.
This concordance further validates the high-content imaging assay as a measure of viral replication and release. Thus, a selective small molecule METTL3 inhibitor effectively suppresses the productive replication of human β-coronavirus, pandemic SARS-CoV-2 in a further human lung cell line.

[5] = tested on: hCoV-OC43; test: hCoV-OC43 infectious virus production from MRCS cells by TCID50; type: cell-based; details: for hCoV-OC43 infectious virus production: TCID50 after 48h, compared to equivalent concentrations of M3c or DMSO; for efficacy compared with remdesivir: hCoV-OC43 infectious virus production
Protocol: FIG. 8. Inhibiting METTL3 in lung fibroblasts limits hCOV-OC43 infectious virus production. MRCS cells infected with hCOV-OC43 [MOI=0.001] were treated with vehicle (DMSO), control compound (M3c) or active METTL3 inhibitor (M3i2 in A or M3i in B) at the indicated concentration. After 48h, the amount of infectious virus released was quantified by TCID50. N=3. **P<0.01; *P<0.05 by student's t-test.
In FIGS. 7B and 7C, each set of bars from left to right signifies DMSO, M3c and M3i2. […] To determine how METTL3 chemical inhibitors influenced virus production, we quantified and compared infectious virus produced by infected cell cultures treated with vehicle, a control compound (M3c), the two different METTL3 chemical inhibitors (M3i, M3i2) and remdesivir.

[6] = tested on: hCoV-OC43; test: hCoV-OC43 replication and spread in MRCS cells, N protein immunofluorescence, high-content imaging; type: cell-based
Protocol: FIG. 2. Inhibiting METTL3 in lung fibroblasts suppresses hCOV-OC43 replication. (A) MRCS cells infected with hCOV-OC43 [MOI=0.001] were treated with vehicle (DMSO), control compound (M3c), active METTL3 inhibitor (M3i) or (+) control antiviral remdesivir (rem). Viral spread through the culture was determined by immunofluorescence using an antibody to the hCoV-OC43 nucleocapsid protein (green stain). (B) Quantitation of N protein positive cells from (A) (n=3; **P<0.005; *P<0.05 by t-test for M3c vs M3i). Suppression of viral replication by M3i is evident from >0.5 mM and higher. (C) Test compounds (3 mM) have no significant impact on MRCS viability (n=3) after 48 h of treatment.
To evaluate how METTL3 enzymatic activity impacted coronavirus reproduction, we compared the activity of a specific METTL3 chemical inhibitor (Tzelepis et al., 2019), here termed M3i, to a structurally related control compound M3c unable to inhibit METTL3. […] To measure coronavirus replication, we developed an assay (FIG. 2A) that uses indirect immunofluorescence to detect coronavirus nucleocapsid protein (N) to monitor and quantify virus reproduction and spread using a high-content imaging platform (Cellinsight CX7 LZR). […] In FIG. 2C, the bars from left to right indicate DMSO, M3c, M3i, and remdesivir. […] In FIG. 3A, the bars from left to right represent DMSO, M3c and M3i. In FIG. 3B, the bars represent Not Treated, M3c and M3i. […] It is believed this requirement will extend to other RNA viruses, including coronaviruses with pandemic potential. The data further provide proof in principle that the cellular m^6A modification machinery represents an unexpected host target for anti-coronavirus drug targeting.

[7] = tested on: SARS-CoV-2; type: cell-based; details: FIG. 3A
[8] = tested on: viral RNA; test: Viral RNA accumulation by RT-qPCR; type: cell-based; details: RT-qPCR (not shown)
[9] = biological target: METTL3 (Homo sapiens, UniProt Q86U44); details: Tzelepis et al., 2019; cited from earlier work
[10] = tested on: Calu-3 cells
[11] = tested on: viral dsRNA; test: Viral dsRNA accumulation, immunofluorescence with J2 dsRNA-specific antibody; type: cell-based
[12] = tested on: coronavirus nucleocapsid protein (N); type: cell-based; details: infected MRCS cells, 24 h treatment / 24 hpi

Sequence of METTL3 (Q9HCE5 whole entry): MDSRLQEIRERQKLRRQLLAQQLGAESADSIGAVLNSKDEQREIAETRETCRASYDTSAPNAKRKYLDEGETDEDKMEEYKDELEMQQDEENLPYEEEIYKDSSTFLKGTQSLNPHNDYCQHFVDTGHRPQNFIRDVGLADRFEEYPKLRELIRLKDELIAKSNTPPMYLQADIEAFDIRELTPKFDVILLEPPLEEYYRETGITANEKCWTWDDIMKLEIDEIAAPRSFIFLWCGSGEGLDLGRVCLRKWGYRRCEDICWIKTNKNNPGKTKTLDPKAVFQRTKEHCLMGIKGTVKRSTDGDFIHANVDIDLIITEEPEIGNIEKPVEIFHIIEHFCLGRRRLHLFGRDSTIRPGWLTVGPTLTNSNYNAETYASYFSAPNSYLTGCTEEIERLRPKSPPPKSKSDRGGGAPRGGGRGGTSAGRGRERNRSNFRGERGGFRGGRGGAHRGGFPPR
Sequence of METTL3 (Q86U44 whole entry): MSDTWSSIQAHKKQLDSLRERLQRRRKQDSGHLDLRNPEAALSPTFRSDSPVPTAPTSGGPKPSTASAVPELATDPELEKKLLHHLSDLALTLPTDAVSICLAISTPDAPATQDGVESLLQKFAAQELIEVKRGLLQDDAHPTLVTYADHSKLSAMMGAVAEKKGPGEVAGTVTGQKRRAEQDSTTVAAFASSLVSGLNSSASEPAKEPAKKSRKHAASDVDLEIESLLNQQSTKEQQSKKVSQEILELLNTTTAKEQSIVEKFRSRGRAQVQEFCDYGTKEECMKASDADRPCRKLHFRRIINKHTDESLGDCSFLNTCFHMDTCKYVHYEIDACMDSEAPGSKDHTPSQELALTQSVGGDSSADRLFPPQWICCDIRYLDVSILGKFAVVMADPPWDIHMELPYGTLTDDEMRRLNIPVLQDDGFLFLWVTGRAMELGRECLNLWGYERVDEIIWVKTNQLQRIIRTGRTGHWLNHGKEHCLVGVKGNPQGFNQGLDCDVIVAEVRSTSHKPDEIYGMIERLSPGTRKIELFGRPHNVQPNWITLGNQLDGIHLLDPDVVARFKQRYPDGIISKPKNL

O=C(NCc1cn2cc(CNCC3CCCCC3)ccc2n1)c1cc(=O)n2ccccc2n1 [M3i2]
IC50 ([1]; Severe acute respiratory syndrome coronavirus 2, A549+ACE2 cells, read-out: IC50 against SARS-CoV-2): 16.8 µM | icSARS-CoV-2-mNG-infected A549+ACE2 cells ([1]; higher concentrations, compared with DMSO or M3c): clearly reduced | effects on cell viability ([2]; 10 μM, MRCS cells (FIG. 7C)): without any discernible effects | viability of A549+ACE2 cells [3]: Minor differences | reduction of SARS-CoV-2 infectious virus production [4]: 300 fold | hCoV-OC43 infectious virus production [5]: reduced | efficacy compared with remdesivir ([5]; FIG. 8): neither were as efficacious as remdesivir | hCoV-OC43 reproduction and spread through MRCS cells ([6]; 10 μM, compared to control compound M3c): inhibited

CC1(C)CCN(Cc2ccc3nc(Cn4cc(-c5cc(Br)cc6[nH]ncc56)nn4)cn3c2)CC1 [M3i]
cell viability of siRNA-treated cultures ([2]; MRCS cells, siRNA-treated, FIG. 9C): did not detectably change | effects on MRCS cell viability ([2]; over the dosage range tested (FIG. 2C)): negligible detectable effects | SARS-CoV-2 replication in Calu-3 cells [7]: significantly reduced | accumulation of viral RNA [8]: significant reduction | selectivity for METTL3 [9]: highly selective | impact on viability of Calu-3 cell ([10]; concentrations of 3 mM or lower): minimal impact | effects on Calu-3 cell viability ([10]; over the dosage range tested (FIG. 3B)): negligible detectable effects | viral dsRNA accumulation [11]: blocks; also recorded: significant reduction | reduction of hCoV-OC43 replication compared with M3i2 ([5]; FIG. 8): to a greater extent than M3i2 | hCoV-OC43 infectious virus production [5]: reduced | efficacy compared with remdesivir ([5]; FIG. 8): neither were as efficacious as remdesivir | N accumulation / N expression [12]: reduced | concentration at which hCoV-OC43 replication and spread is strongly suppressed ([6]; MRCS cells): ≥ 0.5 µM | hCoV-OC43 reproduction and spread in MRCS cells ([6]; compared to the inactive compound M3c, FIG. 9): reduced

AGGAGCCAGCCAAGAAAUCAA[dT][dT] [METTL3-2]
hCoV-OC43 replication and spread (N protein positive cells) after METTL3 depletion ([6]; cultures treated with M3c): not | hCoV-OC43 replication and spread (N protein positive cells) after METTL3 depletion ([6]; cultures treated with M3i): increased

CACCUACGGACAGCUCAGU[dT][dT] [siRNA #4]
reduction of the percentage of infected (mNeonGreen-positive) cells [1]: 89%

CUGCAAGUAUGUUCACUAUGA[dT][dT [METTL3-1]
hCoV-OC43 replication and spread (N protein positive cells) after METTL3 depletion ([6]; cultures treated with M3c): not | hCoV-OC43 replication and spread (N protein positive cells) after METTL3 depletion ([6]; cultures treated with M3i): increased

GAAACGCGGCGUUUGGGCA[dT][dT] [YTHDF1 siRNA #3]
reduction of the percentage of infected (mNeonGreen-positive) cells [1]: 79%

GUAACGGAGACCAUCAUUU[dT][dT] [YTHDF1 siRNA #1]
reduction of the percentage of infected (mNeonGreen-positive) cells [1]: 68%

GUCAAUGGGAGUGGGCAUU[dT][dT] [YTHDF1 siRNA #2]
reduction of the percentage of infected (mNeonGreen-positive) cells ([1]; siRNA 72 h before infection, MOI=0.1, 48 h, compared with control nonsilencing siRNA): 23%
